# Measured values from patent US11414428B2, “Inhibitors of tryptophan dioxygenases (IDO1 and TDO) and their use in therapy” (Auckland UniServices Limited, priority 2015, dated 2022).
# Columns and labels:
# [1] = Cell viability (MTT colourimetric assay) in the IDO1 cell-based assay; settings: mouse, same experiment as cellular IDO1 assay, read-out: Cell cytotoxicity IC50
# Procedure: The viability of the cells in each well in the same experiment was determined using the 3-(4,5-dimethylthiazolyl-2-yl)-2,5-diphenyltetrazolium bromide ([…]) colourimetric assay. After the removal of the supernatant for determination of IDO1 inhibition, the cells were incubated with MU (500 μg/mL) until crystal formation was observed. Plates were centrifuged for 15 min at 2500 g, and then all the supernatant in then wells was discarded. DMSO (100 μL/well) was added to dissolve the crystals and then the absorbance in each well was measured at 570 nm. Cell viability in each well was expressed as a percentage of untreated controls. Triplicate cultures were used for all experiments unless stated otherwise.
# [2] = biological target: Recombinant human IDO1 (rhIDO1) (Homo sapiens (Human), UniProt P14902); assay: Enzymatic assay for IDO1 activity; type: biochemical; settings: rhIDO1 9 nM, 80 μM TRP, 37° C. 30 min
# Sequence of Recombinant human IDO1 (rhIDO1) (P14902 whole entry): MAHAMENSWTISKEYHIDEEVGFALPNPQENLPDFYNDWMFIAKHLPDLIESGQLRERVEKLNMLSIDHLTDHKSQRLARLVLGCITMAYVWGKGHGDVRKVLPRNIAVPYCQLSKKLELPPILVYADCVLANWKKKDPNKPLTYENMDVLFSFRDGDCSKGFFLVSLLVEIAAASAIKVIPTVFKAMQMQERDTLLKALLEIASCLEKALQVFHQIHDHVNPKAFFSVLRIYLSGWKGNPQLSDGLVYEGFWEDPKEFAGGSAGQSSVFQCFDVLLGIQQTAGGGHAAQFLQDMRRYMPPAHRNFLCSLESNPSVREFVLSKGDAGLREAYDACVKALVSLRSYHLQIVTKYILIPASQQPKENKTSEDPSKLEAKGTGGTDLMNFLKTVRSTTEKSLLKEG
# Procedure: Recombinant human IDO1 (rhIDO1) was expressed and purified from cultures of EC538 strain of E. coli transformed with pREP4 and pQE9-IDO plasmid. Reaction mixes were set up in 384-well microplates containing 50 mM phosphate buffer, 10 mM ascorbic, 10 μM methylene blue, 100 μg/mL catalase, 80 μM TRP, 0.01% Tween 20 (v/v) mixed with rhIDO1 (15 μL) at a final concentration of 9 nM in a total volume of 30 μL assay medium. The plates were incubated at 37° C. for 30 min, and the enzymatic reaction was terminated by adding piperidine (200 mM) and heated at 65° C. for 20 min. Fluorescence intensity was read at λex 400 nm and λem 500 nm. Test compounds were dissolved in 100% DMSO and pre-diluted in assay medium prior to adding rhIDO1. IDO1 inhibition (%) was calculated as
# [formula] All experiments were carried out in triplicates, and statistical Analyses were conducted in Prism v5 (Graphpad Software, Inc., La Jolla, Calif., USA). Cell-Based Assay for IDO1 Inhibition
# [3] = biological target: full length human TDO (GL261 cells) (Homo sapiens (Human), UniProt P48775); assay: Cell-based assay for TDO inhibition; settings: GL261 cells over-expressing human TDO, 24 h; read-out: Cellular IC50
# Sequence of full length human TDO (GL261 cells) (P48775 whole entry): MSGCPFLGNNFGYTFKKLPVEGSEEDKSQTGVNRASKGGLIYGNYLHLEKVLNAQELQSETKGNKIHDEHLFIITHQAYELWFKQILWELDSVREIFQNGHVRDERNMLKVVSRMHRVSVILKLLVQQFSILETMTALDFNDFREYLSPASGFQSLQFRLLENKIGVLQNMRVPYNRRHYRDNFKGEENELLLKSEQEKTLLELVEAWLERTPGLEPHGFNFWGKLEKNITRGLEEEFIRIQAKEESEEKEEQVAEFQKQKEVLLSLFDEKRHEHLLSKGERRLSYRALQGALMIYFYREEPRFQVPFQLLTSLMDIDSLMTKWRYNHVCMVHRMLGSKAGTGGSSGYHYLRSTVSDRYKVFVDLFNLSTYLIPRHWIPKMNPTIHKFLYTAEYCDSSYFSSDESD
# Procedure: Culture supernatant from each well was then transferred into a fresh, flat-bottomed 96-well plate, and kynurenine content was determined as described above for the IDO1 assay, and the concentration that inhibited 50% cellular enzyme activity was calculated.
# [4] = Cell viability (MTT colourimetric assay) in the TDO cell-based assay; settings: mouse, same experiment as cellular TDO assay, read-out: Cell cytotoxicity IC50
# Procedure: The viability of the cells in each well in the same experiment was determined using the 3-(4,5-dimethylthiazolyl-2-yl)-2,5-diphenyltetrazolium bromide ([…]) colourimetric assay.
Structure (SMILES),IC50 [1] [µM],IC50 [2] [µM],IC50 [3] [µM],IC50 [4] [µM]
"Cc1nc2onc(NC(=O)Cc3ccc(OC(F)(F)F)cc3)c2c(C)c1Cl [Compound 19, N-(5-Chloro-4,6-dimethylisoxazolo[5,4-b]pyridin-3-yl)-2-(4-(trifluoromethoxy)phenyl)acetamide]",> 100,> 100,–,–
"Cc1nc2onc(NC(=O)Cc3ccccc3)c2c(C)c1Cl [Compound 18, N-(5-Chloro-4,6-dimethylisoxazolo[5,4-b]pyridin-3-yl)-2-phenylacetamide]",–,> 100,–,–
"Cc1nc2onc(NC(=O)Nc3ccc(OC(F)(F)F)cc3)c2c(C)c1Cl [Compound 2, 1-(5-Chloro-4,6-dimethylisoxazolo[5,4-b]pyridin-3-yl)-3-(4-(trifluoromethoxy)phenyl)urea]",> 100,> 100,–,–
"Cc1nc2onc(NC(=O)Nc3ccccc3OC(F)(F)F)c2c(C)c1Cl [Compound 9, 1-(5-Chloro-4,6-dimethylisoxazolo[5,4-b]pyridin-3-yl)-3-(2-(trifluoromethoxy)phenyl)urea]",> 100,> 100,–,–
"Cc1nc2onc(NC(=O)Nc3cccc(OC(F)(F)F)c3)c2c(C)c1Cl [Compound 10, 1-(5-Chloro-4,6-dimethylisoxazolo[5,4-b]pyridin-3-yl)-3-(3-(trifluoromethoxy)phenyl)urea]",> 100,> 100,–,–
"Cc1nc2onc(NC(=O)Nc3ccc(C#N)cc3)c2c(C)c1Cl [Compound 3, 1-(5-chloro-4,6-dimethylisoxazolo[5,4-b]pyridin-3-yl)-3-(4-cyanophenyl)urea]",> 100,10 to 100,–,–
"Cc1nc2onc(NC(=O)Nc3ccccc3C(F)(F)F)c2c(C)c1Cl [Compound 14, 1-(5-Chloro-4,6-dimethylisoxazolo[5,4-b]pyridin-3-yl)-3-(2-(trifluoromethyl)phenyl)urea]",> 100,> 100,–,–
"Cc1nc2onc(NC(=O)Nc3ccccc3Cl)c2c(C)c1Cl [Compound 6, 1-(5-Chloro-4,6-dimethylisoxazolo[5,4-b]pyridin-3-yl)-3-(2-chlorophenyl)urea]",> 100,> 100,–,–
"Cc1nc2onc(NC(=O)Oc3ccccc3)c2c(C)c1Cl [Compound 4, Phenyl (5-chloro-4,6-dimethylisoxazolo[5,4-b]pyridin-3-yl)carbamate]",> 100,1 to 10,10 to 100,> 100
"COc1ccc(NC(=O)Nc2noc3nc(C)c(Cl)c(C)c23)cc1 [Compound 13, 1-(5-Chloro-4,6-dimethylisoxazolo[5,4-b]pyridin-3-yl)-3-(4-methoxyphenyl)urea]",> 100,> 100,–,–
"Cc1nc2onc(NC(=O)Nc3ccc(C(F)(F)F)cc3)c2c(C)c1Cl [Compound 16, 1-(5-Chloro-4,6-dimethylisoxazolo[5,4-b]pyridin-3-yl)-3-(4-(trifluoromethyl)phenyl)urea]",> 100,> 100,–,–
"COc1cccc(NC(=O)Nc2noc3nc(C)c(Cl)c(C)c23)c1 [Compound 12, 1-(5-Chloro-4,6-dimethylisoxazolo[5,4-b]pyridin-3-yl)-3-(3-methoxyphenyl)urea]",> 100,> 100,–,–
"CC(=O)Nc1noc2nc(C)c(Cl)c(C)c12 [Compound 20, N-(5-Chloro-4,6-dimethylisoxazolo[5,4-b]pyridin-3-yl)acetamide]",> 100,> 100,–,–
"Cc1nc2onc(NC(=O)Nc3ccc(Cl)cc3)c2c(C)c1Cl [Compound 8, 1-(5-Chloro-4,6-dimethylisoxazolo[5,4-b]pyridin-3-yl)-3-(4-chlorophenyl)urea]",> 100,> 100,–,–
"Cc1nc2onc(NC(=O)Nc3cccc(C(F)(F)F)c3)c2c(C)c1Cl [Compound 15, 1-(5-Chloro-4,6-dimethylisoxazolo[5,4-b]pyridin-3-yl)-3-(3-(trifluoromethyl)phenyl)urea]",> 100,> 100,10 to 100,> 100
"Cc1nc2onc(NC(=O)Nc3cccc(Cl)c3)c2c(C)c1Cl [Compound 7, 1-(5-Chloro-4,6-dimethylisoxazolo[5,4-b]pyridin-3-yl)-3-(3-chlorophenyl)urea]",> 100,> 100,–,–
"Cc1nc2onc(N)c2c(C)c1Cl [Compound 1, 5-Chloro-4,6-dimethylisoxazolo[5,4-b]pyridin-3-amine]",> 100,–,–,> 100
"Cc1nc2onc(NC(=O)Nc3ccccc3)c2c(C)c1Cl [Compound 17, 1-(5-Chloro-4,6-dimethylisoxazolo[5,4-b]pyridin-3-yl)-3-phenylurea]",> 100,10 to 100,–,–
"COc1ccccc1NC(=O)Nc1noc2nc(C)c(Cl)c(C)c12 [Compound 11, 1-(5-Chloro-4,6-dimethylisoxazolo[5,4-b]pyridin-3-yl)-3-(2-methoxyphenyl)urea]",> 100,10 to 100,–,–
